The values below come from paper PMC11597386, “Pharmacokinetics and Quantitative Structure–Pharmacokinetics Relationship Study of Xanthine Derivatives with Antidepressant, Anti-Inflammatory, and Analgesic Activity in Rats” (Pharmaceutics, 2024).

Where two headings read alike, the source gives them in different places.

The nature of series [1]: Plasma protein binding / unbound fraction by ultrafiltration of plasma collected 15 min after i.v. administration. It counts as in vitro ADME. Particulars: male, Wistar, rat, intravenous. The protocol: The free concentrations of studied compounds in plasma were determined and unbound fraction (fu) was calculated in all available plasma samples obtained 15 min after the intravenous administration. At this time point, 500–600 µL of blood was collected and plasma samples obtained were divided into two portions: 150–200 µL for measurement of free compound concentrations and 100 µL for measurement of the total drug concentrations. Plasma proteins were separated by an ultrafiltration method using Centrifree® devices with Ultracel PL regenerated cellulose membrane, 30,000 NMWL (Merck, Germany). For direct measurement of the free concentrations of compounds, each plasma sample was transferred to a sample reservoir of the disposable filter unit and centrifuged (1000× g) for 20 min at 25 °C. An aliquot of the ultrafiltrate was directly subjected to analysis. Free and total compound concentrations were measured by a high-performance liquid chromatography method with diode-array detection (HPLC-DAD) or liquid chromatography with tandem mass spectrometry (LC-MS/MS).
For the purpose of the quantitative analysis of free and total plasma concentrations of studied compounds, different analytical methods were developed. […] The mixture consisting of 100 μL of rat plasma or ultrafiltrate, 10 μL of theobromine (25 μg/mL in methanol) used as IS, 20 μL of 0.1 M HCl, and 5 mL of dichloromethane was agitated on a shaker (VXR Vibrax, IKA, Staufen, Germany) and subsequently centrifuged for 20 min at 3000 rpm (Universal 32, Hettich, Germany). A clear supernatant (4 mL) was transferred into a glass conical tube and evaporated to dryness under a stream of nitrogen in a water bath at 37 °C. The residue was then reconstituted in 100 μL of methanol, vortexed for 30 s, and the solution was transferred into the automatic sampler vials. Finally, 10–50 μL aliquot was injected into the HPLC/DAD system (LaChrome Elite, Merck-Hitachi, Germany). Chromatographic separation was performed on the LiChrospher 100 RP-18 (250 × 4 mm i.d., 5 µm particle size) analytical column coupled with a LiChroCART® guard column (4.0 × 4.0 mm, 5 μm) from Merck (Darmstadt, Germany). The mobile phase consisted of a mixture of methanol and deionized water (20:80, v/v) and was pumped through the system at a flow rate of 1.0 mL/min. The peaks were detected by a DAD detector at the wavelength of 271 nm. […] The analytical run lasted 20 min.
Plasma or ultrafiltrate samples containing PTX or (R)-LSF were placed in a glass tube and spiked with 10 µL of the IS solution (100 µg/mL temazepam in methanol). Samples were then acidified with 20 µL of 0.1 M hydrochloric acid, and 3 mL of dichloromethane was added to each sample. Tubes were shaken for 20 min and subsequently centrifuged (2000× g, 20 min). Then, 2.5 mL of dichloromethane was transferred to a clean glass conical tube and evaporated under a gentle stream of nitrogen in a water bath at 37 °C. The dried residue was dissolved in 100 µL of the mobile phase, and 50 µL of this solution was injected into the HPLC column. Analysis was performed on a 250 × 4.6 mm Chiralpak AD column (Daicel Corp., Tokyo, Japan) with 10 μm particle size, protected with a 20 × 4.6 mm LC-Si guard-column (Supelco Inc., Bellefonte, PA, USA). Mobile phase consisted of hexane: 2-propanol, 84:16 (v/v), and 0.01% diethylamine and was pumped at a flow rate of 1.4 mL/min. […] HPLC system (Thermo Separation Product, San Jose, CA, USA) consisted of a UV/VIS spectrophotometric detector (Spectra 100) with absorbance set at 275 nm, P100 pump, and Rheodyne 7125 manual injector (Alltech Associates, Deerfield, IL, USA) with a 50 µL sample loop. Chromatograms were recorded and integrated with an SP 4400 ChromJet integrator (San Jose, CA, USA).

Series [2] in a line: Pharmacokinetics after single intravenous administration to cannulated rats, noncompartmental analysis. It counts as in vivo, rat. The conditions noted are these: for clearance / half-life / Vd: male, Wistar, rat, plasma, iv; for clearance: read-out: CL, total body clearance; for half-life: read-out: t0.5λz, terminal half-life; for Vd: read-out: Vz, volume of distribution based on the terminal phase. The protocol:
Male Wistar rats, 15–17 weeks of age and weighing between 250 and 350 g, purchased from the Animal Facility of the Jagiellonian University Medical College, Krakow, Poland, were used in all experiments. They were kept under conditions of constant temperature (21–25 °C) and relative humidity of approximately 40–65% with a standard light/dark cycle. Animals were housed in stainless steel cages with suspended wire mesh floors (maximum of 5 rats per cage) with free access to distilled water and the commercial rodent chaw. All study protocols were approved by the First Local Ethical Committee on Animal Testing of the Jagiellonian University (licenses no. Zi/604/2011 and 13/2014).
Three days prior to the experiment, the rat’s jugular vein was cannulated (SAI Infusion Technologies, Lake Villa, IL, USA), allowing for multiple blood samples from a single animal. […] The doses were selected based on the results of our previous studies on rats and mice. Four rats per compound were used. Multiple blood samples were taken over a period of at least 120 min into heparinized tubes; plasma was separated by centrifugation (Universal 32, Hettich, Germany) at 1400× g for 20 min and stored at −80 °C until analysis.
For the purpose of the quantitative analysis of free and total plasma concentrations of studied compounds, different analytical methods were developed. Theo was extracted from the biological samples by liquid–liquid extraction using dichloromethane. The mixture consisting of 100 μL of rat plasma or ultrafiltrate, 10 μL of theobromine (25 μg/mL in methanol) used as IS, 20 μL of 0.1 M HCl, and 5 mL of dichloromethane was agitated on a shaker (VXR Vibrax, IKA, Staufen, Germany) and subsequently centrifuged for 20 min at 3000 rpm (Universal 32, Hettich, Germany). A clear supernatant (4 mL) was transferred into a glass conical tube and evaporated to dryness under a stream of nitrogen in a water bath at 37 °C. The residue was then reconstituted in 100 μL of methanol, vortexed for 30 s, and the solution was transferred into the automatic sampler vials. Finally, 10–50 μL aliquot was injected into the HPLC/DAD system (LaChrome Elite, Merck-Hitachi, Germany). Chromatographic separation was performed on the LiChrospher 100 RP-18 (250 × 4 mm i.d., 5 µm particle size) analytical column coupled with a LiChroCART® guard column (4.0 × 4.0 mm, 5 μm) from Merck (Darmstadt, Germany). The mobile phase consisted of a mixture of methanol and deionized water (20:80, v/v) and was pumped through the system at a flow rate of 1.0 mL/min. The peaks were detected by a DAD detector at the wavelength of 271 nm. […] The analytical run lasted 20 min.
Plasma or ultrafiltrate samples containing PTX or (R)-LSF were placed in a glass tube and spiked with 10 µL of the IS solution (100 µg/mL temazepam in methanol). Samples were then acidified with 20 µL of 0.1 M hydrochloric acid, and 3 mL of dichloromethane was added to each sample. Tubes were shaken for 20 min and subsequently centrifuged (2000× g, 20 min). Then, 2.5 mL of dichloromethane was transferred to a clean glass conical tube and evaporated under a gentle stream of nitrogen in a water bath at 37 °C. The dried residue was dissolved in 100 µL of the mobile phase, and 50 µL of this solution was injected into the HPLC column. Analysis was performed on a 250 × 4.6 mm Chiralpak AD column (Daicel Corp., Tokyo, Japan) with 10 μm particle size, protected with a 20 × 4.6 mm LC-Si guard-column (Supelco Inc., Bellefonte, PA, USA). Mobile phase consisted of hexane: 2-propanol, 84:16 (v/v), and 0.01% diethylamine and was pumped at a flow rate of 1.4 mL/min. Calibration curves were linear in a range of 0.1–50 mg/L. The retention times of IS, PTX, and (R)-LSF were 7, 16, and 20 min, respectively. […]

The test system of series [3] is plasma proteins. Also on record: method as in earlier work. The conditions noted are these: cited from earlier work.
Setting [4] is: rat plasma 15 min after i.v. administration, ultrafiltration, geometric mean, n = 4, read-out: fb, fraction bound to plasma proteins (converted).
Setting [5] is: rat plasma 15 min after i.v. administration, ultrafiltration, geometric mean, n = 4, read-out: fu, fraction unbound in plasma.
[6] abbreviates: male Wistar rats, single i.v. dose (50 mg/kg Theo; 40 mg/kg PTX, LSF; 5 mg/kg GR-1 to GR-5; 2 mg/kg GR-6 to GR-8), geometric mean, n = 4.
The mark [7] stands for this setting: rat plasma proteins, read-out: percent of plasma protein binding (converted).

Turning to `COc1nc2c(c(=O)n(C)c(=O)n2C)n1CCCC(=O)O` [GR-6], in series [1] (setting [4]), the fraction unbound at 15 min was 0.31. Further, in series [1] (setting [5]), the fraction unbound at 15 min amounted to 0.31. In addition, in series [2] (setting [6]), the “Vss, volume of distribution at steady-state” value (shortened to “Vss, volume of distribution”) was found to be 0.49 L/kg and the “Vz, volume of distribution based on the terminal phase” value worked out at 1.06 L/kg. In addition, in series [2], the clearance is 43.1 mL/min/kg and the half-life was determined as 17.1 min.
With `CCOc1nc2c(c(=O)n(C)c(=O)n2C)n1CCCC(=O)NN` [GR-5], the fraction unbound at 15 min in series [1] (setting [4]) was 0.89. Besides, the fraction unbound at 15 min in series [1] (setting [5]) worked out at 0.89. Besides, in series [1] (setting [7]), the fraction unbound at 15 min is 0.89. For the same compound, in series [2] (setting [6]), the “Vss, volume of distribution” value worked out at 0.78 L/kg. Further, in series [2], the clearance came out at 25.3 mL/min/kg, the Vd was 1.43 L/kg and the half-life was determined as 39 min.
For the compound `Cn1c(=O)c2[nH]cnc2n(C)c1=O` [Theo, theophylline, reference compound], the “Vss, volume of distribution” value in series [2] (setting [6]) is on record as 0.72 L/kg. In series [2], the clearance came to 2.14 mL/min/kg, the Vd stood at 0.73 L/kg and the half-life is 236 min.
Regarding `Cn1c(=O)c2c(ncn2CC(O)CO)n(C)c1=O` (centres unmarked) [diprophyllinum], in series [3], the “percent of plasma protein binding” value is 84–90%.
Turning to `Cn1c(=O)c2c(ncn2CCCCN2CCN(c3cccc(Cl)c3)CC2)n(C)c1=O` [GR-1], the fraction unbound at 15 min in series [1] (setting [4]) was 0.08. Further, the fraction unbound at 15 min in series [1] (setting [5]) worked out at 0.08. In addition, in series [2], the clearance was 33.1 mL/min/kg, the Vd turned out to be 2.17 L/kg and the half-life is 45.4 min.
For `COc1ccccc1N1CCN(CCCCCn2cnc3c2c(=O)n(C)c(=O)n3C)CC1` [GR-3], the fraction unbound at 15 min in series [1] (setting [4]) is 0.28; in series [1] (setting [5]), 0.28; in series [1] (setting [7]) it was 0.28 to 0.29. Besides, in series [2], the clearance was 23.6 mL/min/kg. The Vd in series [2] turned out to be 1.7 L/kg. In addition, the half-life in series [2] was found to be 49.8 min.
`C[C@@H](O)CCCCn1c(=O)c2c(ncn2C)n(C)c1=O` [(R)-LSF, R-lisofylline, reference compound]: in series [1] (setting [4]), the fraction unbound at 15 min was 0.79. The fraction unbound at 15 min in series [1] (setting [5]) amounted to 0.79. Further, in series [1] (setting [7]), the fraction unbound at 15 min was 0.79. Further, the “Vss, volume of distribution” value in series [2] (setting [6]) turned out to be 0.78 L/kg. Moreover, in series [2], the clearance was 22.1 mL/min/kg, the Vd amounted to 0.82 L/kg and the half-life turned out to be 25.7 min.
Regarding `Cn1c(=O)c2c(ncn2CCCCCN2CCN(c3ccccc3)CC2)n(C)c1=O` [GR-2], in series [1] (setting [4]), the fraction unbound at 15 min is 0.29. Besides, the fraction unbound at 15 min in series [1] (setting [5]) worked out at 0.29. In addition, the fraction unbound at 15 min in series [1] (setting [7]) was 0.28 to 0.29. Besides, in series [2], the clearance was 29.6 mL/min/kg, the Vd amounted to 1.52 L/kg and the half-life amounted to 35.6 min.
Regarding `CC(=O)CCCCn1c(=O)c2c(ncn2C)n(C)c1=O` [PTX, pentoxifylline, reference compound], the fraction unbound at 15 min in series [1] (setting [4]) is 0.19. Besides, the fraction unbound at 15 min in series [1] (setting [5]) is 0.19. In addition, the “Vss, volume of distribution” value in series [2] (setting [6]) is recorded as 0.92 L/kg. In series [2], the clearance amounted to 55.5 mL/min/kg, the Vd is 1.18 L/kg and the half-life was 14.7 min.
As to `COc1nc2c(c(=O)n(C)c(=O)n2C)n1CCCC(=O)NCc1ccccc1` [GR-7], the fraction unbound at 15 min in series [1] (setting [4]) is 0.13. For the same compound, the fraction unbound at 15 min in series [1] (setting [5]) stood at 0.13. The “Vss, volume of distribution” value in series [2] (setting [6]) is recorded as 0.78 L/kg. Moreover, in series [2], the clearance is 43.2 mL/min/kg, the Vd turned out to be 0.95 L/kg and the half-life was 15.2 min.
Take `COC(=O)Cn1c(=O)[nH]c2c1c(=O)n(C)c(=O)n2C` [GR-8]: the fraction unbound at 15 min in series [1] (setting [4]) was 0.14. Further, the fraction unbound at 15 min in series [1] (setting [5]) was 0.14. Besides, the “Vss, volume of distribution” value in series [2] (setting [6]) amounted to 0.33 L/kg. In series [2], the clearance is 68.1 mL/min/kg, the Vd amounted to 0.66 L/kg and the half-life worked out at 6.75 min.
Regarding `Cn1c(=O)c2c(ncn2CCCCCN2CCN(c3cccc(Cl)c3)CC2)n(C)c1=O` [GR-4], the fraction unbound at 15 min in series [1] (setting [4]) was 0.06. For the same compound, the fraction unbound at 15 min in series [1] (setting [5]) is 0.06. Moreover, in series [2], the clearance was found to be 26.4 mL/min/kg, the Vd amounted to 1.9 L/kg and the half-life stood at 50 min.
